Data published in article PMC8657793, “Synthesis, In Vitro and In Silico Anticancer Activity of New 4-Methylbenzamide Derivatives Containing 2,6-Substituted Purines as Potential Protein Kinases Inhibitors” (International Journal of Molecular Sciences, 2021).

Assays:
[1] = system: K562 (chronic myelogenous leukemia); test: MTT anti-proliferative assay, K562; assay type: cell-based; settings: Homo sapiens, 48 h
Method: (§1) For the in vitro assays, a stock solution (1% DMSO in the appropriate buffer with the tested compound diluted under sonication) was prepared from which several dilutions were made with the appropriate buffer.
Human cell lines were obtained from the Institute of Cytology, Russian Academy of Sciences. […] Plates were incubated under standard conditions for 48 h.

[2] = system: MCF-7 (breast adenocarcinoma); test: MTT anti-proliferative assay, MCF-7; assay type: cell-based; settings: Homo sapiens, MCF7, 48 h
Method: (§2) To determine the selectivity of the synthesized compounds 7–16 toward various cancer cells and normal human cells, the anti-proliferative activity against K562 (chronic myelogenous leukemia), HL-60 (promyelocytic leukemia), MCF-7 (breast adenocarcinoma), HeLa (cervix carcinoma), HepG2 (human liver cancer), A549 (lung carcinoma), OKP-GS (renal cell carcinoma), and normal cells RPMI 1788 (B lymphocyte, the human cell line) was investigated.
as §1, with “Each in vitro experiment was performed at least in triplicate and the standard deviation of absorbance was less than 10% of the mean. For” for “For”
(§3) Human cell lines were obtained from the Institute of Cytology, Russian Academy of Sciences. The cell lines studied were maintained in RPMI 1640 medium (AppliChem, Darmstadt, Germany) supplemented with 20% (HL-60, RPMI 1788) fetal calf serum (HyClone, Cramlington, UK), in DMEM (A 549) and Eagle’s MEM (AppliChem) (MCF7, HeLa) with 10% fetal calf serum (HyClone). Cells were cultivated at 37 °C in a humidified atmosphere of 5% CO2. Cellular sensitivities to synthesized compounds and standards were measured with the MTT assay. Cells were plated in triplicate in 96-well plates (10^5 cells/well for suspended cell cultures and 5 × 10^3 cells/well for monolayer cultures); on the same day (suspended cell cultures) or on the following day (monolayer cultures), compounds were added at the appropriate dilutions. Anti-proliferative activity was studied at concentrations 0.1–50.0 µM. The reference drugs were imatinib, sorafenib and nilotinib. Plates were incubated under standard conditions for 48 h. Thereafter, 10 μL MTT (Sigma) in phosphate-buffered saline (5 mg/mL) was added. The plates were incubated for an additional 4 h and 150 μL dimethylsulphoxide (DMSO) was added to dissolve the formazan crystals. The optical density was read on a HALO MPR-95 Microplate Reader (Dynamica Scientific Ltd., Melbourne, Victoria, Australia) at 570 nm. The antiproliferative effects were taken as degrees of inhibition of tumor cells (%). The average of three parallel measurements was calculated for each concentration of test compound. The degree of cell growth suppression was plotted as a function of the logarithm of the concentration. The half maximal inhibitory concentration (IC50) was determined graphically for active compounds.

[3] = system: HepG2 (human liver cancer); test: MTT anti-proliferative assay, HepG2; assay type: cell-based; settings: 48 h
Method: as §2
as §1, with “Each in vitro experiment was performed at least in triplicate and the standard deviation of absorbance was less than 10% of the mean. For” for “For”
as §3

[4] = biological target: T1, PDGFRα (Homo sapiens, UniProt P16234); test: Kinase Selectivity Profiling System TK-1 / ADP-Glo, PDGFRα; assay type: biochemical
T1 construct: purchased Promega
T1 sequence (P16234 24-1089): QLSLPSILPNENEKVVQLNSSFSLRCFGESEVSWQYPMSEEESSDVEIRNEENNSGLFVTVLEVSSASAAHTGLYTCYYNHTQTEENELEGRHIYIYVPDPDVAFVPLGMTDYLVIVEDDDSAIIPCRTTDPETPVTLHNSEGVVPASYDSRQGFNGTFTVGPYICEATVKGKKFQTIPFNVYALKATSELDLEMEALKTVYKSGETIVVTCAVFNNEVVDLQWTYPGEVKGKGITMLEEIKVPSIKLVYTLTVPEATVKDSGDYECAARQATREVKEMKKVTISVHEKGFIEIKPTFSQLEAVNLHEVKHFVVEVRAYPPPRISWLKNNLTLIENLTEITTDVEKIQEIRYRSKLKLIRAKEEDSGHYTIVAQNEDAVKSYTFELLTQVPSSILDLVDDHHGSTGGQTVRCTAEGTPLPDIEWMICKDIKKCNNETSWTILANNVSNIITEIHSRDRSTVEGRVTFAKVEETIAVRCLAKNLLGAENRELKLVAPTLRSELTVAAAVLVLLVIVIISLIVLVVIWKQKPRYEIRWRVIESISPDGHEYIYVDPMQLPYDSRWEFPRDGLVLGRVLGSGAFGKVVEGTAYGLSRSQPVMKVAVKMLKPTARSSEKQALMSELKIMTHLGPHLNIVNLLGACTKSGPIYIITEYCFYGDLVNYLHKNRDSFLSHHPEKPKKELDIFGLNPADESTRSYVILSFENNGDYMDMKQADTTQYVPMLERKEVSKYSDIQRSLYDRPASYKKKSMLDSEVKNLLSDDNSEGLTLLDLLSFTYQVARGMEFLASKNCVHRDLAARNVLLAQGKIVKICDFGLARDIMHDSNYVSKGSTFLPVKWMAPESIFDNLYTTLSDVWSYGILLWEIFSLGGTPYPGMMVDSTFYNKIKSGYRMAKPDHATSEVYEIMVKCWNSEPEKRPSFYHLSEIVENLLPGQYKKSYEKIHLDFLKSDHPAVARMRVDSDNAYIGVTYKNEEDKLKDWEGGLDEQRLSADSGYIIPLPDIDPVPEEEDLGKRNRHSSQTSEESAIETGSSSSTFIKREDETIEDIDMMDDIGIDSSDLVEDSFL
Text: Considering the presence of a purine ring in the compounds under study, type 1 binding to protein kinases could be expected. We investigated the kinase selectivity of targeted compounds 7–16 against eight receptor tyrosine kinases including EGFR, HER2 and HER4 (epidermal growth factor receptors), IGF1R (insulin-like growth factor 1 receptor), InsR (insulin receptor), KDR (vascular endothelial growth factor receptor 2—VEGFR-2), and PDGFRα and PDGFRβ (platelet-derived growth factor receptors). The assay was performed using the Kinase Selectivity Profiling System TK-1 (Promega, Madison, WI, USA) and ADP-Glo™ Kinase assay kit (Promega, Madison, WI, USA). Kinase activity was measured by quantifying the […] following a kinase reaction. Enzymatic activity inhibition percentage caused by studied compounds was evaluated at the single concentration of 1 μM.
The Abl1 inhibitory activity assay was performed using Abl1 Kinase Enzyme System (Promega, Madison, WI, USA) and ADP-Glo™ Kinase assay kit (Promega, Madison, WI, USA) according to the Technical Manual. The general procedure was as follows: kinase (2.5 ng/reaction) was incubated with substrate (1 μg), compound (0.5 and 10µM) and ATP (50 μM) in a commercial buffer solution with a reaction volume of 5 μL. In every experiment, no-enzyme and no-compound control reactions were included to represent background luminescence (0% activity) and uninhibited kinase activity (100% activity), respectively. The assay 384-well plate was incubated at room temperature for 1 h. Afterwards, 5μL of ADP-Glo reagent was added into each well to stop the reaction and consume the […] within 40 min. At the end, 10 μL of kinase detection reagent was added into the well and incubated for 30 min to produce a luminescence signal. Kinase activity assays were performed in triplicate at each inhibitor concentration. The luminescence was measured with the help of a Tecan Infinite M200 Plate Reader. The luminescence data were analyzed using the computer software, Magellan™. Percent kinase activity (KA) was calculated by subtracting the average no-enzyme control luminescence values from all kinase-containing reactions with or without compound, then converting these net luminescence values to percent activity based on the no-compound control reactions representing 100% kinase activity. Inhibition (I, %) was calculated as 100%-KA.
The single-dose screening of kinase selectivity was performed using Kinase Selectivity Profiling System TK-1 (Promega, Madison, WI, USA) and ADP-Glo™ Kinase assay kit (Promega, Madison, WI, USA) according to Technical Manual. Kinase Selectivity Profiling System TK-1 includes a set of kinases from the tyrosine kinase family (EGFR, HER2, HER4, IGF1R, InsR, KDR, PDGFα, PDGFβ) in 8-tube strip format. The general procedure was as follow: kinase working stock (2 µL/reaction) was incubated with ATP/substrate working stock (1 µL) and compound (1 µM) in a commercial buffer solution with a reaction volume of 5 μL. The reaction conditions and inhibition (%) calculation were the same as in Section 3.3.1. Kinase activity assays were performed in duplicate at each inhibitor.

Row | Structure (SMILES) | IC50 [1] | IC50 [2] | IC50 [3] | inhibition at 1 µM [4]
1 | O=C(Nc1cccc(C(F)(F)F)c1)c1ccc(Cn2cnc3c(Cl)nc(Cl)nc32)cc1 [Compound 7, 4-((2,6-Dichloro-9H-purin-9-yl)methyl)-N-(3-(trifluoromethyl)phenyl)benzamide] | 2.27 ± 0.81 µM | 12.3 ± 4.07 µM | 11.3 ± 1.44 µM | 40%
2 | Cc1cn(-c2cc(NC(=O)c3ccc(Cn4cnc5c(Cl)nc(Cl)nc54)cc3)cc(C(F)(F)F)c2)cn1 [Compound 10, 4-((2,6-Dichloro-9H-purin-9-yl)methyl)-N-(3-(4-methyl-1H-imidazol-1-yl)-5-(trifluoromethyl)-phenyl)benzamide] | 2.53 ± 0.77 µM | 8.1 ± 1.98 µM | 12.7 ± 0.7 µM | 37%
3 | CNC(=O)c1cc(Oc2ccc(NC(=O)Nc3ccc(Cl)c(C(F)(F)F)c3)cc2)ccn1 [Sorafenib, sorafenib, reference compound] | 2.9 ± 0.4 µM | 13.7 ± 3.08 µM | 8.4 ± 2.8 µM | 98%

Further lines, results first:

Row | IC50 [1] | IC50 [2] | IC50 [3] | inhibition at 1 µM [4] | Structure (SMILES)
4 | 29.7 ± 1.87 µM | 14.2 ± 2.71 µM | 9.16 ± 0.78 µM | 10% | COc1nc(Cl)nc2c1ncn2Cc1ccc(C(=O)Nc2cccc(C(F)(F)F)c2)cc1 [Compound 13, 4-((2-Chloro-6-methoxy-9H-purin-9-yl)methyl)-N-(3-(trifluoromethyl)phenyl)benzamide]
5 | 27.5 ± 1.19 µM | 67.4 ± 3.29 µM | 28.5 ± 1.07 µM | 16% | COc1nc(Cl)nc2c1ncn2Cc1ccc(C(=O)Nc2cc(-n3cnc(C)c3)cc(C(F)(F)F)c2)cc1 [Compound 14, 4-((2-Chloro-6-methoxy-9H-purin-9-yl)methyl)-N-(3-(4-methyl-1H-imidazol-1-yl)-5-(trifluoromethyl)phenyl)benzamide]
6 | 30.6 ± 0.94 µM | 76.8 ± 3.25 µM | 88.3 ± 2.54 µM | 16% | Nc1nc(Cl)nc2c1ncn2Cc1ccc(C(=O)Nc2cccc(C(F)(F)F)c2)cc1 [Compound 15, 4-((6-Amino-2-chloro-9H-purin-9-yl)methyl)-N-(3-(trifluoromethyl)phenyl)benzamide]
